{"source": "patent US8877747B2", "about": "“Indenone derivative and pharmaceutical composition comprising same” (Korea Research Institute of Chemical Technology, priority 2009, dated 2014)", "note": "Counter-ions that a name gives are not always drawn."}
{"tested_on": "MC3T3-E1 cells", "test": "ALP activity, differentiation of osteoblast cells", "assay_type": "cell-based", "conditions": "Mus musculus, MC3T3-E1, 144 h; MC3T3E1 cells treated with 10 μM compound and OF; relates activity to OF-only group (100%); higher = more efficacious", "method": "To examine the effects of the inventive indenone derivatives on the differentiation and activation of osteoblast cells, the activity and expression of alkaline phosphatase (ALP), a marker for the differentiation of osteoblast cells, and the bone nodule formation using a mouse derived osteoblast-like cells, MC3T3-E1 (ATCC, Japan) or a primary mouse calvaria derived preosteoblastic cells were observed.\nMC3T3-E 1 cells were seeded in a medium containing osteogenic factors (OF) such as ascorbic acids and β-glycerophosphates (b-GP), and each compound of Examples was added thereto at a concentration of 0.1, 1 and 10 μM. The cells were incubated for 6 days (MC3T3-E1 cells) or 7 days (primary mouse calvaria derived preosteoblastic cells) in a 37° C. CO2 incubator. Then, the culture medium was replaced with a fresh medium together with the test compound every two or three days. On the last day, the medium was centrifuged to remove the supernatant, and the cells were washed with PBS. The washed cells were subjected to a 3-cycle freege-thaw treatment using a −70° C. deep freezer to allow enzymes elute in a lysis buffer. The lysed protein was quantified, followed by measurement of ALP activity using 4-nitrophenylphosphate.\nFurther, a group treated only with DMSO or OF was tested for ALP activities for comparison.", "units": {"activity at 10 µM": "%"}}
{"smiles": "CC(C)(C)OC(=O)N1CCN(CCOc2ccc3c(c2)C(=O)C(c2cccnc2)=C3c2ccccc2)CC1", "note": "[Example 44, tert-butyl 4-(2-(1-oxo-3-phenyl-2-(pyridin-3-yl)-1H-inden-6-yloxy)ethyl)piperazine-1-carboxylate]", "activity at 10 µM": 710}
{"smiles": "CS(=O)(=O)N1CCN(CCOc2ccc3c(c2)C(=O)C(c2cccnc2)=C3c2ccccc2)CC1", "note": "[Example 45, 6-[2-(4-(methylsulfonyl)piperazin-1-yl)ethoxy]-3-phenyl-2-(pyridin-3-yl)-1H-inden-1-one hydrochloride salt]", "activity at 10 µM": 192}
{"smiles": "O=C1C(c2cccnc2)=C(c2ccccc2)c2ccc(OCCN3CCNCC3)cc21", "note": "[Example 46, 6-(2-(piperazin-1-yl)ethoxy)-3-phenyl-2-(pyridin-3-yl)-1H-inden-1-one]", "activity at 10 µM": 107}
{"smiles": "CS(=O)(=O)N1CCN(CCOc2ccc3c(c2)C(=O)C(c2ccc(F)c(F)c2)=C3c2ccc(C(F)(F)F)cc2)CC1", "note": "[Example 48, 2-(3,4-difluorophenyl)-6-(2-(4-(methylsulfonyl)piperazin-1-yl)ethoxy)-3-(4-(trifluoromethyl)phenyl)-1H-inden-1-one]", "activity at 10 µM": 67}
{"smiles": "CS(=O)(=O)N1CCN(CCOc2ccc3c(c2)C(=O)C(c2cncnc2)=C3c2ccc(C(F)(F)F)cc2)CC1", "note": "[Example 49, 6-(2-(4-(methylsulfonyl)piperazin-1-yl)ethoxy)-2-(pyrimidin-5-yl)-3-(4-(trifluoromethyl)phenyl)-1H-inden-1-one]", "activity at 10 µM": 37}
{"smiles": "CS(=O)(=O)N1CCN(CCOc2ccc3c(c2)C(=O)C(c2ccc(F)c(F)c2)=C3c2cc(F)cc(F)c2)CC1", "note": "[Example 51, 2-(3,4-difluorophenyl)-3-(3,5-difluorophenyl)-6-(2-(4-(methylsulfonyl)piperazin-1-yl)ethoxy)-1H-inden-1-one hydrochloride salt]", "activity at 10 µM": 33}
{"smiles": "CS(=O)(=O)N1CCN(CCOc2ccc3c(c2)C(=O)C(c2cncnc2)=C3c2cc(F)cc(F)c2)CC1", "note": "[Example 52, 3-(3,5-difluorophenyl)-6-(2-(4-(methylsulfonyl)piperazin-1-yl)ethoxy)-2-(pyrimidin-5-yl)-1H-inden-1-one hydrochloride salt]", "activity at 10 µM": 50}
{"smiles": "CS(=O)(=O)N1CCN(CCOc2ccc3c(c2)C(=O)C(c2ccc(F)c(F)c2)=C3c2ccc(Cl)cc2)CC1", "note": "[Example 53, 3-(4-chlorophenyl)-2-(3,4-difluorophenyl)-6-(2-(4-(methylsulfonyl)piperazin-1-yl)ethoxy)-1H-inden-1-one hydrochloride salt]", "activity at 10 µM": 27}
{"smiles": "CS(=O)(=O)N1CCN(CCOc2ccc3c(c2)C(=O)C(c2cncnc2)=C3c2ccc(Cl)cc2)CC1", "note": "[Example 54, 3-(4-chlorophenyl)-6-(2-(4-(methylsulfonyl)piperazin-1-yl)ethoxy)-2-(pyrimidin-5-yl)-1H-inden-1-one hydrochloride salt]", "activity at 10 µM": 62}
{"smiles": "CC(C)(C)OC(=O)N1CCN(CCCOc2ccc3c(c2)C(=O)C(c2cccnc2)=C3c2ccccc2)CC1", "note": "[Example 55, tert-Butyl 4-(3-(1-oxo-3-phenyl-2-(pyridin-3-yl)-1H-inden-6-yloxy)propyl)piperazine-1-carboxylate]", "activity at 10 µM": 129}
{"smiles": "CN(C)CCOc1ccc2c(c1)C(=O)C(c1cccnc1)=C2c1ccccc1", "note": "[Example 56, 6-(2-(dimethylamino)ethoxy)-3-phenyl-2-(pyridin-3-yl)-1H-inden-1-one hydrochloride salt]", "activity at 10 µM": 71}
{"smiles": "CN(C)CCCOc1ccc2c(c1)C(=O)C(c1cccnc1)=C2c1ccccc1", "note": "[Example 57, 6-(3-(dimethylamino)propoxy)-3-phenyl-2-(pyridin-3-yl)-1H-inden-1-one hydrochloride salt]", "activity at 10 µM": 62}
{"smiles": "CC(C)(C)OC(=O)N1CCN(CCOc2ccc3c(c2)C(=O)C(c2cccnc2)=C3c2cc(F)cc(F)c2)CC1", "note": "[Example 58, tert-Butyl 4-(2-(3-(3,5-difluorophenyl)-1-oxo-2-(pyridin-3-yl)-1H-inden-6-yloxy)ethyl)piperazine-1-carboxylate]", "activity at 10 µM": 19}
